This is an account of results in patent publication US20030039657A1, “Inducible vaccines” (priority 1999, published 2003).

The subject of the assay is humoral immune response against hAAT. In words: Anti-hAAT antibody (humoral immune response) in mouse serum by ELISA after gene-gun DNA inoculation. In kind it is in vivo, balb/c mice.

Description: Five to 7-week-old female Balb/c mice were given 4 μg reporter (P4U-hAAT) and 200 ng effector (GS1158) of the mifepristone-inducible plasmid DNA divided into four shots. Mifepristone was given i.p. 20 weeks after DNA administration (Day 140, 142, 144). Blood samples were take from the tail vein at various time points and anti-hAAT levels were determined by ELISA. Values are mean +/−SD for three mice per group. The control is with no drug treatment.
Specific-pathogen-free (5-7 weeks old), female balb/c mice were purchased from Jackson Labs (Bar Harbor, Me.). A biolistic gene gun (Rumsey-Loomis, Ithaca, N.Y.) was used to deliver plasmid DNA into the skin of mouse ears (Williams et al., 1991; Johnston and Tang 1993). Briefly, DNA was precipitated onto gold micro-projectiles (3±1 μm diameter, Metz Metallurgical Corp., South Plainfield, N.J.) at 4 μg DNA/mg gold. Each mouse received four shots of gold-DNA and each shots contains 1 μg reporter (P4U-AAT) and 50 ng effector (GS-1158) plasmid DNA. The drug (RU486, Sigma) was given intraperitoneally on days 1, 3, 5, and also on day 14, 16, in a dose of 500 μg/kg/day in 100 μl sesame oil, after DNA injection. […] The blood samples of the mice was collected from the tail vein at the time point as indicated. The anti-hAAT antibodies in the serum was measured using enzyme-linked immuno enzyme-linked immunosorbent assay (ELISA, Tang et al. 1992). Briefly, ninety six-well plats were coated with 1 μg hAAT per well in 50 μl phosphate buffered saline (PBS) (for overnight at 4° C. and 100 μl blocking buffer (3% bovine serum albumin (3SA) in PBS with 0.05% tween 20) was added and incubated for 2 hrs at room temperature. After 3 times washing with PBS plus 0.05% tween 20, the serum samples (diluted 1:200 in blocking buffer) were added into the well and incubated overnight at 4° C., then further incubated with horseradish peroxidase-conjugated goat anti-mouse immunoglobulin G and M (Jackson ImmunResearch, West Grove, Pa.) for 1 h at room temperature. The plate was washed and developed with TMB buffer solution (Calbiochem). The optical density was read at 450 nm and concentration of the antibodies was determined according to the standard curve.
The mice were given RU486 intraperitoneally in week 7 (Day 50, 52, 54) after the DNA injection in the drug and the Van Gogh (removed the site of the DNA inoculation, ear) groups. The ear cut was performed before administering the drug. The value shown is the mean with standard deviation for experiments on three mice.

Regarding `CC#C[C@]1(O)CC[C@H]2[C@@H]3CCC4=CC(=O)CCC4=C3[C@@H](c3ccc(N(C)C)cc3)C[C@@]21C` [RU486, mifepristone], the “anti-hAAT antibody levels, time of peak” value (FIG. 3, 4 shots of 1 μg P4U-AAT + 50 ng GS-1158, RU486 500 μg/kg/day ip days 1, 3, 5, 14, 16) is given as “reached peak levels at the third week”. The “anti-hAAT immune response, inducibility by ligand” value is, setting by setting: (FIG. 4, RU486 on week 3 (day 21, 23, 25) after DNA, 1 μg reporter and 50 ng effector per shot) “inducible by simply giving the ligand three weeks after the primary injection of the DNA”; (FIG. 6, RU486 ip in week 7 (Day 50, 52, 54) after DNA injection) “inducible 7 weeks after the DNA injection”. Further, the “anti-hAAT immune response after removal of the DNA inoculation site (Van Gogh group)” value (FIG. 6, ear cut before RU486 in week 7) is listed as “the original vaccine site was not required for induction”.
